According to US8324235B2, “Heterocyclic spiro-compounds” (Novartis AG, priority 2007, dated 2012):
Read-outs that look alike come from different tables or passages of the source.

Key:
[1] = target: T1, recombinant human Cyp19 enzyme (aromatase) (Homo sapiens, UniProt P11511); experiment: Cyp19/MFC high throughput aromatase inhibition kit; type: biochemical
T1 construct: purchased Becton Dickinson Biosciences, San Jose, Calif., USA
T1 sequence (P11511 1-503): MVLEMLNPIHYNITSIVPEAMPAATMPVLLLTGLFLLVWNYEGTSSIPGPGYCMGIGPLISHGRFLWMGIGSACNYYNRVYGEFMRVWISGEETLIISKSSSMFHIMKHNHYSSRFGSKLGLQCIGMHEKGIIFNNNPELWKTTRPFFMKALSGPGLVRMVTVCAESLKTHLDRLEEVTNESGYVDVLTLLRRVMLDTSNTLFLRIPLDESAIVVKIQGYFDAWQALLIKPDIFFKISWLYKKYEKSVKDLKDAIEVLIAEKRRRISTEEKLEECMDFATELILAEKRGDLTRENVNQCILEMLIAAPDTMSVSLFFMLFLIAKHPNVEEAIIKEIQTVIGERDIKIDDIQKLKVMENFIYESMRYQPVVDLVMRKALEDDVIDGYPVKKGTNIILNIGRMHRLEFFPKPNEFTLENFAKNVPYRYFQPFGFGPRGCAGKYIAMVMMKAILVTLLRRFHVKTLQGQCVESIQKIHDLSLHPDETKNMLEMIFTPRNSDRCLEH
Experimental: The compounds of the formula (I′) have at least one asymmetric carbon atom, which is labelled “*”. A compound of the formula (I′) is to be understood as a compound having a specific configuration around the designated asymmetric carbon atom. If a synthesis method is used which leads to racemic compounds, the racemate resolution is carried out in accordance with conventional methods, such as via a chiral HPLC column. […] The aforementioned aromatase inhibitory activity can, as the skilled worker is well aware and as described below, be comfortably determined via the commercial Cyp19 enzyme inhibition kit (vide infra). In the abovementioned inhibition kit, compounds of the formula (I′) have an activity which is at least 10 times lower, preferably 20 times lower than the compounds of the formula (I′) with the opposite configuration around the asymmetric carbon atom labelled “*”.
The enzyme aromatese (CYP19) mediates the rate-limiting step of estrogen biosynthesis in human and rodent species. As estrogens control the sexual characteristics and reproduction as well as various structural and functional tissue features, compounds intended for the herein disclosed therapeutic use should at therapeutic dose levels show no or only minor interference with aromatase.
The concentration-dependent interference of the compounds with aromatase can be measured in vitro using a commercial Cyp19 enzyme inhibition kit and the manufacturer's instructions.
The Cyp19/methoxy-4-trifluoromethyl-coumarin (MFC) high throughput inhibition kit (Becton Dickinson Biosciences, San Jose, Calif., USA), for example, is designed to screen for potential inhibitors of Cyp19 catalytic activity in a 96-well format. The kit includes recombinant human Cyp19 enzyme in the form of supersomes, a fluorescent P450 substrate, an NADPH regenerating system, a reaction buffer and a stop reagent. MFC, the fluorogenic substrate is rapidly converted by Cyp19 supersomes to the highly fluorescent product 7-hydroxy-4-trifluoromethyl coumarin (7-HFC). The execution of the assay in the presence of various concentrations of inhibitor compounds ranging from 0.2 nanomolar to […] occurs according to the manufacturer's instructions. The concentration-dependent inhibition of aromatase activity can be quantified using the equation described above for the in vitro testing of aldosterone synthase inhibition in NCI-H295R cells to generate IC50 values (inhibitory concentration in mol/l yielding 50% of the maximal inhibition).

[2] = target: T2, aldosterone synthase (CYP11B2) (Rattus norvegicus, UniProt P30099); experiment: Suppression of plasma aldosterone levels in ACTH-stimulated rats; type: in vivo, Wistar rats; details: 4 mg/kg p.o., 2 h after dosing vs 1 h before dosing
T2 construct: from tissue; host or cells: live Wistar rat (adrenal gland, zona glomerulosa)
T2 sequence (P30099 35-510): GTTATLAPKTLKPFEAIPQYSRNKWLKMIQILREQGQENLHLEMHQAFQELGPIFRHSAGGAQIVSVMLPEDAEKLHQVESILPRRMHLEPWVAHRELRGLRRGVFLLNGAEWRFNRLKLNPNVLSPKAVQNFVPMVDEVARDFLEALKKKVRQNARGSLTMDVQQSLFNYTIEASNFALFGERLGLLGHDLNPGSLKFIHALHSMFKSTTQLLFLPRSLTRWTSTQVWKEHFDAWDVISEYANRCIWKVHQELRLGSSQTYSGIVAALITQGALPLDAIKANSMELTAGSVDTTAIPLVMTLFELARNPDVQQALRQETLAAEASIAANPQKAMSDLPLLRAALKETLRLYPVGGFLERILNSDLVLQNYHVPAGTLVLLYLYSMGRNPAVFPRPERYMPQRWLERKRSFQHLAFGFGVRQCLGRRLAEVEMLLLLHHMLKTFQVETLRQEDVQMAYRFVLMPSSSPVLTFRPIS
Experimental: The target efficacy of the compounds disclosed in the present invention to dose-dependently suppress aldosterone levels in vivo may be assessed with the following protocol:
(§1) Adult male Wistar rats weighing between 250 and 350 grams are kept under the usual 12-hour light and 12-hour dark conditions at a temperature of 23° C.±2° C. On the first day of the experiment, the animals receive a subcutaneous injection of a depot ACTH product in a dose of 1.0 mg/kg weight (SYNACTHEN-Depot, Novartis, Basel, CH) 16 hours prior to the administration of a test compound. […] An alternative method to stimulate aldosterone secretion consists in subjecting rats to a low salt diet for 48 hours and applying the diuretic furosemide at 10 mg/kg by subcutaneous or intraperitoneal administration 16 hours, respectively 2 hours prior to the start of the experiment. […] The aldosterone concentrations of the plasma samples can be determined with a radioimmunoassay as described above for the in vitro test systems. […]
(§2) The selective suppression of plasma steroid levels as for instance aldosterone in comparison to corticosterone may serve as a measure for in vivo bioavailability and pharmacodynamic enzyme inhibitory activity of the herein described compounds. The evaluation of the data may occur relative to the application of vehicle or quantitatively by determination of the area under the curve (AUC).

[3] = target: T3, 11beta hydroxylase (CYP11B1) (Rattus norvegicus, UniProt P15393); experiment: Suppression of plasma corticosterone levels in ACTH-stimulated rats; type: in vivo, Wistar rats; details: 4 mg/kg p.o., 2 h after dosing vs 1 h before dosing
T3 construct: from tissue; host or cells: live Wistar rat (adrenal gland)
T3 sequence (P15393 25-499): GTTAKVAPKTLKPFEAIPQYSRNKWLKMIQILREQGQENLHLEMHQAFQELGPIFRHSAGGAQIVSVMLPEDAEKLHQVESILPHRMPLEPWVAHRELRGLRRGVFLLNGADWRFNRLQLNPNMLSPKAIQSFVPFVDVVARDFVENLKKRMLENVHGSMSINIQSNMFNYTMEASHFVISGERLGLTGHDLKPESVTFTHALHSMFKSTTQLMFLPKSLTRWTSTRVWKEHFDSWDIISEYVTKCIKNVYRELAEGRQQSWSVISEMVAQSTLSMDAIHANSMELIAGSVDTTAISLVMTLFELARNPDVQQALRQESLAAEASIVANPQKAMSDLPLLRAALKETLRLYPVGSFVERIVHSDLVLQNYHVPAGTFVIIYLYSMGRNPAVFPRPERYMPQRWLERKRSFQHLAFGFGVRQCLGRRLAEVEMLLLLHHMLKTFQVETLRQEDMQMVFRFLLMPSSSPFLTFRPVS
Experimental: as §1, with “experiment. On the second day of the experiment, the animals are divided into test groups of 5 animals and subjected to a first bleed 1 hour prior to the administration of test compound.” for “experiment.”
as §2, with “(AUC). […]” for “(AUC).”

[4] = enantiomers with differing aromatase inhibition, read-out: IC50 value (aromatase inhibition, enantiomers)
[5] = average of several measurements, read-out: IC50 value (aromatase inhibition)

| IC50 [1, 4] [nM] | Compound | Aldosterone levels (% change at 2 h) [2] [%] | Corticosterone levels (% change at 2 h) [3] [%] | IC50 [1, 5] [nM] |
| --- | --- | --- | --- | --- |
| 31.8 | N#Cc1ccc2c(c1)COC21CCn2cncc21 (single isomer, unassigned) [antipode of 23] | – | – | – |
| – | N#Cc1ccc2c(c1)COC21CCCn2cncc21 (centres unmarked) [Example 1, 6′,7′-Dihydro-3H,5′H-spiro[2-benzofuran-1,8′-imidazo[1,5-a]pyridine]-5-carbonitrile] | −67.6 | −7.7 | 64.6 |
| 922 | N#Cc1ccc2c(c1)COC21CCn2cncc21 (single isomer, unassigned) [Example 23, (1S) or (1R)-5′,6′-Dihydro-3H-spiro[2-benzofuran-1,7′-pyrrolo[1,2-c]imidazole]-5-carbonitrile] | – | – | – |
| – | N#Cc1ccc2c(c1)C1(CCCn3cncc31)OC2 (centres unmarked) [Example 4, 6′,7′-Dihydro-3H,5′H-spiro[2-benzofuran-1,8′-imidazo[1,5-a]pyridine]-6-carbonitrile] | −50.2 | 0.9 | 406 |
